Laboratory results from patent US20240342156A1, “METHODS FOR TREATING PAIN” (Xenon Pharmaceuticals Inc., priority 2019, published 2024).

Tests used:
[1] = system: rat spinal nerve ligation (SNL)/Chung model of neuropathic pain; test: Spinal nerve ligation (SNL)/Chung model, tactile allodynia, electronic von Frey test on lesioned paw; format: in vivo
Method: (§1) Objective: The efficacy of Compound A was assessed using the rat spinal nerve ligation (SNL)/Chung model of neuropathic pain. The SNL model in rats was developed as described previously (Chung J M, Kim H K, Chung K. “Segmental spinal nerve ligation model of neuropathic pain.” Methods Mol. Med. 99 (2004) 35-45).
(§2) Study Design. Briefly, on Day 0, von Frey and cold plate tests were used for baseline measurements of tactile and cold allodynia respectively. Post-baseline measurements, rats (171-209 g male Sprague Dawley) were anesthetized and an incision at the L4-S2 level was performed to expose the left L5 nerve. A ligature was tied tightly around the L5 nerve (Chung et al.; R. Dost et al., “The anti-hyperalgesic activity of Retigabine is mediated by KCNQ potassium channel activation.” Naunyn-Schmiedeberg's Arch. Pharmacol. 369 (2004) 382-390; Gordon Blackburn-Munro et al., “The anticonvulsant retigabine attenuates nociceptive behaviors in rat models of persistent and neuropathic pain.” Eur. J Pharmacol. 460 (2003) 109-116; and Wu Y J et al., “Discovery of (S,E)-3-(2-fluorophenyl)-N-(1-(3-(pyridin-3-yloxy)phenyl)ethyl)-acrylamide as a potent and efficacious KCNQ2 (Kv7.2) opener for the treatment of neuropathic pain.” Bioorg Med. Chem. Lett. 23 (2013) 6188-91). The wound was then sutured and the rats were allowed to recover. On Day 13, post-surgery baselines for tactile and cold allodynia were measured to verify neuropathic pain. Animals were assigned to treatment groups based on the post-surgery baseline score.
(§3) Dosing: For efficacy testing, Compound A was dosed orally once a day for 5 consecutive days from Day 14-18.
Rats were placed under an inverted acrylic plastic box on a grid floor. The tip of an electronic von Frey probe was then applied with increasing force to the surgery hind paw and the force required to induce paw-withdrawal was automatically recorded. The procedure was carried out 3 times and the mean paw withdrawal force was calculated. The experimenter was double blinded to treatment.

[2] = system: rat spinal nerve ligation (SNL)/Chung model of neuropathic pain; test: Spinal nerve ligation (SNL)/Chung model, thermal allodynia, cold plate test on lesioned paw; format: in vivo
Method: as §1
Study Design. Briefly, on Day 0, von Frey and cold plate tests were used for baseline measurements of tactile and cold allodynia respectively. Post-baseline measurements, rats (171-209 g male Sprague Dawley) were anesthetized and an incision at the L4-S2 level was performed to expose the left L5 nerve. […] The wound was then sutured and the rats were allowed to recover. On Day 13, post-surgery baselines for tactile and cold allodynia were measured to verify neuropathic pain. Animals were assigned to treatment groups based on the post-surgery baseline score.
as §3
The cold plate apparatus was maintained at 4±1° C. and was surrounded by an acrylic glass enclosure. Rats were placed on the plate for a period of 5 minutes. The latency to 1st paw-withdrawal, total number of paw withdrawals, and total duration of withdrawal responses were recorded for the surgery hind paw.

[3] = Body weight of SNL rats over the duration of testing; format: in vivo, rat
Method: as §2, §3

[4] = Day 14, test 1 h after administration, 128 mg/kg p.o.
[5] = Day 18, test 1 h after administration, 128 mg/kg p.o. once on Day 14 and on Day 18
[6] = Day 18 at 2 h, 20 mg/kg p.o. once daily Day 14-18

CN1CC[C@]23c4c5ccc(O)c4O[C@H]2[C@@H](O)C=C[C@H]3[C@H]1C5.Cl [Morphine, Morphine hydrochloride, reference compound]
Force inducing paw-withdrawal (g), Delta from baseline compared with Vehicle (p.o.), Δ [1, 4]: +27.4 g
Force inducing paw-withdrawal (g), Delta from baseline, Mean ± s.e.m. [1, 4]: +27.7 ± 5.6 g
Force inducing paw-withdrawal (g), Mean ± s.e.m. [1, 4]: 50.6 ± 5.0 g
Force inducing paw-withdrawal (g), Delta from baseline compared with Vehicle (p.o.), Δ [1, 5]: +24.3 g
Force inducing paw-withdrawal (g), Delta from baseline, Mean ± s.e.m. [1, 5]: +27.1 ± 4.6 g
Force inducing paw-withdrawal (g), Mean ± s.e.m. [1, 5]: 50.0 ± 4.5 g
Latency to first paw-withdrawal (s), Mean ± s.e.m. [2, 4]: 201.3 ± 35.8 s
Latency to first paw-withdrawal, compared with Vehicle (p.o.), Δ% [2, 4]: +55%
Number of withdrawal responses, Mean ± s.e.m. [2, 4]: 7.9 ± 2.8
Number of withdrawal responses, compared with Vehicle (p.o.), Δ% [2, 4]: −22%
Latency to first paw-withdrawal (s), Mean ± s.e.m. [2, 5]: 235.8 ± 33.2 s
Latency to first paw-withdrawal, compared with Vehicle (p.o.), Δ% [2, 5]: +150%
Number of withdrawal responses, Mean ± s.e.m. [2, 5]: 4.6 ± 2.8
Number of withdrawal responses, compared with Vehicle (p.o.), Δ% [2, 5]: −58%
Body weight (g) (mean ± s.e.m.) ([3]; Day 14, 128 mg/kg p.o. once on Day 14 and on Day 18): 295.9 ± 4.6 g
Body weight (g) (mean ± s.e.m.) ([3]; Day 15, 128 mg/kg p.o. once on Day 14 and on Day 18): 312.8 ± 5.5 g
Body weight (g) (mean ± s.e.m.) ([3]; Day 16, 128 mg/kg p.o. once on Day 14 and on Day 18): 302.0 ± 5.4 g
Body weight (g) (mean ± s.e.m.) ([3]; Day 17, 128 mg/kg p.o. once on Day 14 and on Day 18): 298.9 ± 5.4 g
Body weight (g) (mean ± s.e.m.) ([3]; Day 18, 128 mg/kg p.o. once on Day 14 and on Day 18): 306.7 ± 5.2 g

CCOC(=O)Nc1ccc(NCc2ccc(F)cc2)cc1N [Retigabine, reference compound]
Force inducing paw-withdrawal (g), Delta from baseline compared with Vehicle (p.o.), Δ ([1]; Day 14 at 2 h, 20 mg/kg p.o.): +4.0 g
Force inducing paw-withdrawal (g), Delta from baseline, Mean ± s.e.m. ([1]; Day 14 at 2 h, 20 mg/kg p.o.): +4.0 ± 2.2 g
Force inducing paw-withdrawal (g), Mean ± s.e.m. ([1]; Day 14 at 2 h, 20 mg/kg p.o.): 26.5 ± 2.5 g
Force inducing paw-withdrawal (g), Delta from baseline compared with Vehicle (p.o.), Δ [1, 6]: +6.4 g
Force inducing paw-withdrawal (g), Delta from baseline, Mean ± s.e.m. [1, 6]: +9.2 ± 2.1 g
Force inducing paw-withdrawal (g), Mean ± s.e.m. [1, 6]: 31.8 ± 2.2 g
Latency to first paw-withdrawal (s), Mean ± s.e.m. ([2]; Day 14 at 2 h, 20 mg/kg p.o.): 272.7 ± 20.1 s
Latency to first paw-withdrawal, compared with Vehicle (p.o.), Δ% ([2]; Day 14 at 2 h, 20 mg/kg p.o.): +110%
Number of withdrawal responses, Mean ± s.e.m. ([2]; Day 14 at 2 h, 20 mg/kg p.o.): 1.5 ± 1.3
Number of withdrawal responses, compared with Vehicle (p.o.), Δ% ([2]; Day 14 at 2 h, 20 mg/kg p.o.): −85%
Total duration of withdrawal responses (s), Mean ± s.e.m. ([2]; Day 14 at 2 h, 20 mg/kg p.o.): 0.3 ± 0.3 s
Total duration of withdrawal responses, compared with Vehicle (p.o.), Δ% ([2]; Day 14 at 2 h, 20 mg/kg p.o.): −86%
Latency to first paw-withdrawal (s), Mean ± s.e.m. [2, 6]: 209.3 ± 36.1 s
Latency to first paw-withdrawal, compared with Vehicle (p.o.), Δ% [2, 6]: +122%
Number of withdrawal responses, Mean ± s.e.m. [2, 6]: 3.4 ± 1.3
Number of withdrawal responses, compared with Vehicle (p.o.), Δ% [2, 6]: −69%
Total duration of withdrawal responses (s), Mean ± s.e.m. [2, 6]: 27.3 ± 23.5 s
Total duration of withdrawal responses, compared with Vehicle (p.o.), Δ% [2, 6]: +153%
Body weight (g) (mean ± s.e.m.) ([3]; Day 14, 20 mg/kg p.o. once daily Day 14-18): 300.8 ± 4.8 g
Body weight (g) (mean ± s.e.m.) ([3]; Day 15, 20 mg/kg p.o. once daily Day 14-18): 312.6 ± 5.1 g
Body weight (g) (mean ± s.e.m.) ([3]; Day 16, 20 mg/kg p.o. once daily Day 14-18): 321.1 ± 5.2 g
Body weight (g) (mean ± s.e.m.) ([3]; Day 17, 20 mg/kg p.o. once daily Day 14-18): 330.6 ± 5.3 g
Body weight (g) (mean ± s.e.m.) ([3]; Day 18, 20 mg/kg p.o. once daily Day 14-18): 336.8 ± 5.7 g
